{"source": "patent US6583161B1", "about": "“Benzenesulfonamides and benzamides as therapeutic agents” (Tularik Inc., priority 1998, dated 2003)", "key": {"HeLa cells": {"test_system": "HeLa cells", "test": "Inhibition of HeLa cell growth (Alamar Blue uptake)", "type": "cell-based", "settings": "Homo sapiens; concentration required to inhibit by 50% the uptake of Alamar Blue by HeLa cell cultures", "text": "(§1) Compounds can be evaluated for their ability to inhibit in vitro the growth of HeLa cells, an immortal cell line derived from a human cervical carcinoma commonly used to evaluate the cytotoxicity of potential therapeutic agents. The following data reflect the cytotoxicity of selected examples of the present invention. The values given represent the concentration of test compound required to inhibit by 50% the uptake of Alamar Blue (Biosource International, Camarillo, Calif.) by HeLa cell cultures, which correlates directly with the overall levels of cellular metabolism in the culture, and is generally accepted as an appropriate marker of cell growth. The test was conducted according to the method of Ahmed et al. (J. Immunol. Methods 1994, 170, 211). […] Compounds were similarly evaluated for cell growth inhibition using MCF-7 cells and MCF-7/ADR cells."}, "MCF-7 cells": {"test_system": "MCF-7 cells", "test": "Cell growth inhibition using MCF-7 cells", "type": "cell-based", "settings": "Homo sapiens, MCF7", "text": "as §1"}, "MCF-7/ADR cells": {"test_system": "MCF-7/ADR cells", "test": "Cell growth inhibition using MCF-7/ADR cells", "type": "cell-based", "settings": "Homo sapiens, NCI/ADR-RES", "text": "as §1"}}, "data": [{"smiles": "COc1ccc(NS(=O)(=O)c2cc(OC)c(OC)c(OC)c2)cc1O", "note": "[Example 1, 1-[(3-Hydroxy-4-methoxyphenyl)aminosulfonyl]-3,4,5-trimethoxybenzene]", "values": [{"measurement": "IC50", "setting": "HeLa cells", "result": 0.15, "unit": "µM"}, {"measurement": "IC50", "setting": "MCF-7 cells", "result": 0.15, "unit": "µM"}, {"measurement": "IC50", "setting": "MCF-7/ADR cells", "result": 0.5, "unit": "µM"}, {"measurement": "melting point", "result": "145 to 146", "unit": "°C"}]}]}
